Test system: 5×FAD exosomes (Aβ-associated astrosomes)
Test: Incubation of serum exosomes with ceramide analogs or anti-ceramide IgG; vesicle size by nanoparticle tracking analysis (ZetaView)
Type: biochemical, mouse
Conditions: for Vesicle size reduced: 5×FAD serum exosomes incubated at 37° C. for 16 h with 50 μM ceramide analog, NTA
Method: Sera were isolated from freshly obtained mouse blood. Blood was drawn through heart puncture and was allowed to clot at room temperature for 30 min. Blood was then centrifuged at 1,800×g for 10 min at 4° C. The clear upper layer was transferred to a fresh tube and centrifuged at 3,000×g for 15 min to pellet residual blood cells. Exosomes were extracted using ExoQuick exosome solution (EXOQ; System Biosciences, Inc., Mountain View, Calif., USA) according to the manufacturer protocol. Briefly, one-fourth milliliter aliquots of serum was treated with 67 μl of ExoQuick exosome solution, followed by incubation for 60 min at 4° C. to precipitate total exosomes. Tubes were then centrifuged at 1,500×g for 30 min. Each exosome pellet was resuspended in 100 μl of PBS with 1× Halt™ Protease Inhibitor Cocktail (Thermo Fisher, Massachusetts, USA). In certain experiments exosomes were labeled with PKH67 Green Fluorescent Dye. The exosomes were labeled with PKH67 Green Fluorescent Cell Linker Kit for General Cell Membrane Labelling (Sigma-Aldrich) according to the manufacturer's protocol. Briefly, ExoQuick pellets were resuspended in PBS, 1 ml of Diluent C (CGLDIL, Sigma-Aldrich) was then added to each sample. As a control, 1 ml of Diluent C after adding the same volume of PBS was used. Next, 4 μl of PKH67 dye was added to 1 ml of Diluent C then mixed with the exosomes and the control, PKH67/Diluent C mixture was ultra-centrifuged before being added to samples. The samples were allowed to incubate <5 min on a rotor plate. One ml of 1% BSA was then added to bind excess dye. Samples were ultra-centrifuged at 110,000×g for 70 min, washed and centrifuged again. For exosomes quantification, nanoparticle tracking analysis (NTA) with the ZetaView PMX110 (Particle Metrix) was used. Briefly, exosomes were resuspended in PBS. Two ml of appropriately diluted samples were injected into the ZetaView cell. The instrument was set to obtain NTA measurements at 11 positions, two cycles at each position. […]

SMILES | Vesicle size reduced | Aggregates formed by 5×FAD serum astrosomes associated with Aβ (size distribution, FIG. 2D) (5×FAD exosomes treated with ceramide analog, particle diameter by NTA)
CCCCCCCCCCCCCCCC(=O)N(CCO)CCO [B16, N-palmitoyl bisethanolamine] | not | 
CCCCCCCC/C=C\CCCCCCCC(=O)NC(CO)CO [S18, N-oleoyl serinol] | 17% | reduced

From US20210113499A1, “CERAMIDE MIMICS FOR TREATMENT OF ALZHEIMER'S DISEASE” (University of Kentucky Research Foundation, priority 2019, published 2021)
